According to patent US20070208085A1 (SOMANTA LIMITED, priority 2006, published 2007):
Read-outs that look alike come from different tables or passages of the source.

Assays:
Experiment in all cases: NCI human cell line panel cytotoxicity
Type in all cases: cell-based
786-0 = conditions: Renal
Description: (§1) To identify the activity of the compound of formula IV in additional cell lines, an NCI human cell line panel was screened for sensitivity to the compound. Cytotoxicity was evaluated for chloroethylaminoanthraquinone compounds synthesized as described in EXAMPLE 1, using an in vitro cell based assay as described in Pors et al., Mol. Cancer Ther., 2:607-610 (2003).
(§2) Human tumor cell lines from the NCI human cell line panel (Table 2) were tested in the assay.
(§3) Growth inhibition was determined, and was expressed as the concentration (nM) required to inhibit cell growth by 50% (IG50). […] In particular, excellent activity was observed against CNS, colon, NSCLC and renal cancer cell lines. […] Standard methods were used for MTT results (Monks A et. al., J. Natl Cancer Inst. 1991 June 5;83(11):757-66).

A549/ATCC = conditions: NSCLC
Description: as §1, §2, §3

ACHN = conditions: Renal
Description: as §1, §2, §3

BT549 = conditions: BT-549, Breast
Description: as §1, §2, §3

DU145 = conditions: DU-145, Prostate
Description: as §1, §2, §3

EKVX = conditions: NSCLC
Description: as §1, §2, §3

HCT-116 = conditions: Colon
Description: as §1, §2, §3

HCT-15 = conditions: Colon
Description: as §1, §2, §3

HS 578T = conditions: Breast
Description: as §1, §2, §3

HT-29 = conditions: Colon
Description: as §1, §2, §3

KM 12 = conditions: KM12, Colon
Description: as §1, §2, §3

LOX IMVI = conditions: Melanoma
Description: as §1, §2, §3

MCF7 = conditions: Breast
Description: as §1, §2, §3

MDA-MB-231/ATCC = conditions: Breast
Description: as §1, §2, §3

MDA-MB-435 = conditions: Breast
Description: as §1, §2, §3

NCI-H226 = conditions: NSCLC
Description: as §1, §2, §3

CN(C)CCNc1ccc(NCCN(CCCl)CCCl)c2c1C(=O)c1c(O)ccc(O)c1C2=O [Compound IV]
IC50 (786-0; read-out: IC50 nM): < 10 nM
IC50 (786-0; read-out: IC50): < 10 nM
IC50 (786-0; read-out: Log IC50 (converted)): ≤ 10 nM
IC50 (A549/ATCC; read-out: IC50 nM): 27 nM
IC50 (A549/ATCC; read-out: IC50): 26.9 nM
IC50 (A549/ATCC; read-out: Log IC50 (converted)): 26.9 nM
IC50 (ACHN; read-out: IC50 nM): < 10 nM
IC50 (ACHN; read-out: IC50): < 10 nM
IC50 (ACHN; read-out: Log IC50 (converted)): ≤ 10 nM
IC50 (BT549; read-out: IC50 nM): 2040 nM
IC50 (BT549; read-out: IC50): 2040 nM
IC50 (BT549; read-out: Log IC50 (converted)): 2040 nM
IC50 (DU145; read-out: IC50 nM): 50 nM
IC50 (DU145; read-out: IC50): 50.1 nM
IC50 (DU145; read-out: Log IC50 (converted)): 50.1 nM
IC50 (EKVX; read-out: IC50 nM): 759 nM
IC50 (EKVX; read-out: IC50): 759 nM
IC50 (EKVX; read-out: Log IC50 (converted)): 759 nM
IC50 (HCT-116; read-out: IC50 nM): < 10 nM
IC50 (HCT-116; read-out: IC50): < 10 nM
IC50 (HCT-116; read-out: Log IC50 (converted)): ≤ 10 nM
IC50 (HCT-15; read-out: IC50 nM): < 10 nM
IC50 (HCT-15; read-out: IC50): < 10 nM
IC50 (HCT-15; read-out: Log IC50 (converted)): ≤ 10 nM
IC50 (HS 578T; read-out: IC50 nM): 525 nM
IC50 (HS 578T; read-out: IC50): 525 nM
IC50 (HS 578T; read-out: Log IC50 (converted)): 525 nM
IC50 (HT-29; read-out: IC50 nM): < 10 nM
IC50 (HT-29; read-out: IC50): < 10 nM
IC50 (HT-29; read-out: Log IC50 (converted)): ≤ 10 nM
IC50 (KM 12; read-out: IC50 nM): 138 nM
IC50 (KM 12; read-out: IC50): 138 nM
IC50 (KM 12; read-out: Log IC50 (converted)): 138 nM
IC50 (LOX IMVI; read-out: IC50 nM): < 10 nM
IC50 (LOX IMVI; read-out: IC50): < 10 nM
IC50 (LOX IMVI; read-out: Log IC50 (converted)): ≤ 10 nM
IC50 (MCF7; read-out: IC50 nM): < 10 nM
IC50 (MCF7; read-out: IC50): < 10 nM
IC50 (MCF7; read-out: Log IC50 (converted)): ≤ 10 nM
IC50 (MDA-MB-231/ATCC; read-out: IC50 nM): 100 nM
IC50 (MDA-MB-231/ATCC; read-out: IC50): 100 nM
IC50 (MDA-MB-231/ATCC; read-out: Log IC50 (converted)): 100 nM
IC50 (MDA-MB-435; read-out: IC50 nM): 21 nM
IC50 (MDA-MB-435; read-out: IC50): 20.9 nM
IC50 (MDA-MB-435; read-out: Log IC50 (converted)): 20.9 nM
IC50 (NCI-H226; read-out: IC50 nM): 54 nM
IC50 (NCI-H226; read-out: IC50): 53.7 nM
